Measurements published in patent US12527788B2, “Defining RNA-small molecule affinity landscapes enables design of a small molecule inhibitor of an oncogenic non-coding RNA” (University of Florida Research Foundation, Incorporated, priority 2017, dated 2026).
“Also recorded” adds a separate entry of the source.

Key:
[1] = biological target: RNA3 (G bulge of the miR-17 and miR-20a precursors); assay: Fluorescence-based binding affinity measurement; set-up: species or system human
Description: (§1) FIG. 7: Secondary structures of the nucleic acids to which the binding of small molecule 4 was assessed. […] RNA1 contains the U bulge present in the Dicer processing site common to miR-17, -18a and -20a. RNA2 contains the A bulge that is present in miR-18a. RNA3 contains the G bulge present in miR-17 and miR-20a. Binding affinities (Kd's) are indicated in parentheses and are reported in micromolar.
(§2) Mutation of the U bulge to an AU pair (RNAC) eliminates binding (Kd>100 μM).
(§3) Binding Affinity Measurements: An in solution, fluorescence-based assay was used to determine binding affinities by monitoring the change in fluorescence intensity of 1-FL (or 2-FL/3-FL/4-FL) as a function of RNA concentration as described previously.^18 Briefly, the RNA of interest was folded in 1× Folding Buffer (8 mM Na2HPO4, pH 7.0, 185 mM NaCl and 1 mM EDTA) by heating at 60° C. for 5 min followed by slowly cooling to room temperature on the bench top. Then, the FL-conjugated compound was added into the RNA solution to a final concentration of 100 nM. Serial dilutions were then completed using 1× Folding Buffer supplemented with 100 nM FL-conjugated compound. The solutions were incubated at room temperature for 30 min and then transferred to a well of a black 384-well plate. Fluorescence intensity was measured using a Bio-Tek FL×800 plate reader with an excitation wavelength of 485/20 nm and an emission wavelength of 528/20 nm. The change in fluorescence intensity as a function of the concentration of RNA was fit to equation 3:^9 I=I0+0.5 Δε{([FL]0+[RNA]0 +Kd)−(([FL]0+[RNA]0+Kd)^2−4[FL]0[RNA]0)^1/2} (3) where I is the observed fluorescence intensity; I0 is the fluorescence intensity in the absence of RNA; Δε is the difference between the fluorescence intensity in the absence of RNA and in the presence of infinite RNA concentration; [FL]0 is the concentration of compound; [RNA]0 is the concentration of the selected RNA; and Kd is the dissociation constant.

[2] = biological target: RNA2 (A bulge of the miR-18a precursor); assay: Fluorescence-based binding affinity measurement; set-up: species or system human
Description: as §1, §2, §3

[3] = biological target: RNA1 (5′G_U/3′CUA U bulge of Dicer sites in miR-17, -18a and -20a); assay: Fluorescence-based binding affinity measurement; set-up: species or system human
Description: as §1, §2, §3

[4] = tested on: DU145 prostate cancer cells; assay: Apoptosis by Annexin V/PI staining; format: cell-based; conditions: 10 μM and 20 μM
Description: A, Effect of 4 on STK4 protein expression, a direct target of miR-18a. B, Ability of 4 (10 μM and 20 μM) and a miR-18a antagomir (50 nM) to trigger apoptosis. *, p<0.05 and **, p<0.01, as determined by a two-tailed Student t-test.
Although the most common route to modulate protein expression is to inhibit them directly, here we show it is possible to increase protein expression by targeting non-coding RNAs that repress their production.

miR-19a = assay: RT-qPCR of mature miRNA levels in DU145 cells; format: cell-based, human
Description: (§4) In particular, the mature levels of each miRNA in the cluster were studied by RT-qPCR. In agreement with our in vitro Dicer processing studies (FIG. 8A and Figures S-58-S-62), 4 decreases the amount of mature miR-17, -18a, and -20a at low micromolar concentrations with an IC50 of ˜10 µM, but has no effect on miR-19a, -19b, and -92a (FIG. 8B).
(§5) Cell Culture: DU145 cells were cultured in growth medium (Roswell Park Memorial Institute medium (RPMI) supplemented with 10% fetal bovine serum (FBS)) at 37° C. and 5% CO2
(§6) Total RNA was extracted from cells using a Quick-RNA Miniprep Kit (Zymo Research) per the manufacturer's protocol. Approximately 200 ng of total RNA was used in reverse transcription (RT) reactions, which were completed using a miScript II RT kit (Qiagen) per the manufacturer's protocol. RT-qPCR was performed on a 7900HT Fast Real Time PCR System (Applied Biosystem) using power SYBR Green Master Mix (Applied Biosystems). All primer sets were purchased from Integrated DNA Technologies, Inc. (IDT) or Eurofins (Table S1). The expression levels of mature miRNAs were normalized to U6 small nuclear RNA or 18s rRNA.

miR-92a = assay: RT-qPCR of mature miRNA levels in DU145 cells; format: cell-based, human
Description: as §4, §5, §6

miR-19b = assay: RT-qPCR of mature miRNA levels in DU145 cells; format: cell-based, human
Description: as §4, §5, §6

pre-miR-18a = assay: In vitro Dicer inhibition assay; format: biochemical, human; conditions: low micromolar concentrations
Description: (§7) Initial studies were completed in vitro to determine if compound 4 (Targapremir-18a) inhibits Dicer processing of each miRNA separately in the miR-17-92 cluster using radioactively labeled RNA (FIG. 8A). […] Thus, inhibition of Dicer processing by 4 is selective for miR-17, -18a, and -20a and non-selective inhibition of Dicer processing is not observed.
(§8) Dicer Inhibition Assay: The template used for pre-miR-18a (5′-[…] GCTCCTTCTGGCA) (SEQ ID NO: 41) was PCR-amplified in 1×PCR Buffer, 2 μM forward primer (5′-[…]-AAGGTGCATCTAGTGCAGA) (SEQ ID NO: 42), 2 μM reverse primer (5′-[…]) (SEQ ID NO: 43), 4.25 mM MgCl2, 330 μM dNTPs, and 2 μL of Taq DNA polymerase in a 50 μL reaction. Cycling conditions were 95° C. for 30 s, 55° C. for 30 s, and 72° C. for 60 s. […] The samples was then supplemented with 1 mM ATP and 2.5 mM MgCl2. Serially diluted concentrations of 4 were added and the samples were incubated at room temperature for 15 min. Next, 0.005 units/μL of recombinant human Dicer (Genlantis) were added followed by incubation at 37° C. overnight. Reactions were stopped by adding the manufacturer's supplied stop solution.
(§9) A T1 ladder (cleaves G residues) was generated by heating the RNA in 1×RNA Sequencing Buffer (20 mM sodium citrate, pH 5.0, 1 mM EDTA, and 7 M urea) at 55° C. for 10 min followed by slowly cooling to room temperature. RNase T1 was then added to a final concentration of 3, 0.3, 0.03 units/μL and the solution was incubated at room temperature for 20 min. An RNA hydrolysis ladder was generated by incubating RNA in 1×RNA hydrolysis buffer (50 mM NaHCO3, pH 9.4, and 1 mM EDTA) at 95° C. for 5 min. In all cases, cleavage products were separated on a denaturing 15% polyacrylamide gel and imaged using a Bio-Rad PMI phosphorimager.

pre-miR-19a = assay: In vitro Dicer inhibition assay; format: biochemical, human
Description: as §7, §8, §9

Kd [1]: 40 ± 6 µM | Kd [2]: 32 ± 5 µM | Kd [3]: 30 ± 2 µM
Compound: CN1CCN(c2ccc(-c3ccc4nc(-c5cc(C(C)(C)C)c(OCCCC(=O)NCCCN=[N+]=[N-])c(C(C)(C)C)c5)[nH]c4c3)cc2)CC1 [Compound 4]
Apoptosis [4]: triggers apoptosis | Effect on mature miRNA level (miR-19a): no effect | Effect on mature miRNA level (miR-92a): no effect | Effect on mature miRNA level (miR-19b): no effect | Inhibition of Dicer processing (pre-miR-18a): inhibits in vitro Dicer processing; also recorded: inhibited Dicer processing | Effect on Dicer processing (pre-miR-19a): no effect
